Test results reported in patent US20230049145A1, “GLYCOSYLATED POLYPEPTIDES” (FRESENIUS KABI DEUTSCHLAND GMBH, priority 2019, published 2023).

Legend:
Sp2/0 cells [1] = assay: Sialylation of human IgG1 antibody (golimumab) produced in Sp2/0 cells in perfusion culture supplemented with kifunensine; glycan analysis by HILIC; assay type: cell-based, Murine; details: IgG1 (golimumab) from Sp2/0 cells
Experimental: (§1) Murine Sp2/0 cells transfected with expression vectors encoding SEQ ID NOs: 1 and 2 (which correspond to the heavy and light chains respectively of the human anti-TNFα IgG1 monoclonal antibody, golimumab) were cultured in perfusion bioreactors for 30 days under standard operating parameters. To examine the effect of kifunensine on the sialylation levels of the resulting IgG1, the perfusion cultures were supplemented with either 3, 6, 9, or 12 μg/L kifunensine (corresponding to 13 nM, 26 nM, 39 nM or 52 nM). A control culture was also maintained under the same conditions albeit in the absence of kifunensine.
(§2) On culture day 18, samples were taken from the perfusion bioreactors and the percentage sialylation of the IgG1 antibodies was determined by glycan analysis. Briefly, antibodies were first purified using protein A chromatography, glycans were then enzymatically released from the antibody, fluorescently labelled with 2-aminobenzamide and analysed using hydrophilic interaction chromatography (HILIC) based methods.

CHO cells [2] = assay: Fc-glycan sialylation of human IgG2 antibody (denosumab) produced in CHO cells in fed-batch culture supplemented with kifunensine; assay type: cell-based, Chinese hamster; details: IgG2 (denosumab) from CHO cells, day 20, FIG. 2
Experimental: as §2
(§3) CHO cells transfected with expression vectors encoding SEQ ID NOs: 3 and 4 (which correspond to the heavy and lights chains respectively of the human anti-RANKL IgG2 monoclonal antibody, denosumab) were cultured in bioreactors using standard fed-batch methods. To examine the effects of kifunensine on the Fc-glycan sialylation levels of the resulting IgG2, the cultures were supplemented with either 30, 40, 50 or 60 nM kifunensine on day 3 of the culture. A control culture was also maintained under the same conditions albeit in the absence of kifunensine.
On day 20, samples were taken from bioreactors and the percentage Fc-glycan sialylation of the IgG2 antibodies was determined as described in Example 1.

CHO cells [3] = assay: Cell viability of CHO fed-batch cultures supplemented with kifunensine; assay type: cell-based, Chinese hamster; details: CHO fed-batch cultures, 30, 40, 50 or 60 nM kifunensine added on day 3
Experimental: as §3

CHO cells [4] = assay: Glycosylation profile of recombinant human EPO produced in CHO cells in perfusion culture supplemented with kifunensine; assay type: cell-based, Chinese hamster; details: CHO perfusion culture 18 days, 12 μg/L kifunensine from day 0
Experimental: CHO cells transfected with expression vectors encoding recombinant human EPO (UniProt Accession No. P01588, Sequence Version 1, Entry Version 195) are cultured in perfusion bioreactors for 18 days under standard operating parameters. The culture medium is supplemented with 12 μg/L kifunensine from day 0.
Recombinant human EPO produced during the culture period is harvested throughout the production phase and at the end of the culture period, a sample is obtained to determine the glycosylation profile. The resultant recombinant human EPO has increased mannosylation and sialylation compared to that produced in cultures without kifunensine.

Sp2/0 cells [5] = assay: Cell viability of Sp2/0 perfusion cultures supplemented with kifunensine; assay type: cell-based, Murine; details: Sp2/0 perfusion cultures, 3, 6, 9 or 12 μg/L kifunensine (13, 26, 39 or 52 nM), 30 days
Experimental: as §1

O=C1N[C@@H]2[C@@H](O)[C@@H](O)[C@H](O)[C@@H](CO)N2C1=O [kifunensine, (5R,6R,7S,8R,8aS)-6,7,8-trihydroxy-5-(hydroxymethyl)-1,5,6,7,8,8a-hexahydroimidazo[1,2-a]pyridine-2,3-dione]
kifunensine concentration giving peak sialylation levels (Sp2/0 cells [1]; culture day 18, FIG. 1): 12 µg/L | kifunensine concentration at which an increase in sialylation compared to control was evident (Sp2/0 cells [1]; culture day 18, FIG. 1, particularly 9 and 12 μg/L): ≥ 6 µg/L | kifunensine concentration giving peak sialylation levels (molar) (Sp2/0 cells [1]; culture day 18, conversion of 12 μg/L): ~52 nM | kifunensine concentration at which an increase in Fc-glycan sialylation compared to control was evident (CHO cells [2]): > 40 nM | kifunensine concentration giving peak Fc-glycan sialylation (CHO cells [2]): 60 nM | impact on cell viability (CHO cells [3]): No significant impact on cell viability | mannosylation of recombinant human EPO compared to cultures without kifunensine (CHO cells [4]): increased | sialylation of recombinant human EPO compared to cultures without kifunensine (CHO cells [4]): increased | impact on cell viability (Sp2/0 cells [5]): No significant impact on cell viability
